Experimental data as given in patent US9586956B2, “Isoquinoline and naphthyridine derivatives” (Genentech, Inc., priority 2012, dated 2017).

Legend:
[1] = target: T1, purified human MAP4K4 kinase domain (Homo sapiens, UniProt O95819); assay: MAP4K4 Inhibition Assay Protocol No. 2 (Z'-LYTE FRET); type: biochemical; conditions: Assay 2; 1 nM enzyme, 10 uM ATP, 60 min
T1 construct: purified human MAP4K4 kinase domain
From the text: The kinase activity of purified human MAP4K4 kinase domain was monitored using Z'-LYTE™ technology from Invitrogen to determine inhibition constants (IC50) of small molecule inhibitors. The Z'-LYTE™ biochemical assay employs a fluorescence-based, coupled-enzyme format and is based on the differential sensitivity of phosphorylated and non-phosphorylated peptides to proteolytic cleavage. In the primary reaction, the kinase transfers the gamma-phosphate of ATP to a single tyrosine, serine or threonine residue in a synthetic FRET-peptide. In the secondary reaction, a site-specific protease recognizes and cleaves non-phosphorylated FRET-peptides. Phosphorylation of FRET-peptides suppresses cleavage by the Development Reagent. Cleavage disrupts FRET between the donor (i.e., coumarin) and acceptor (i.e., fluorescein) fluorophores on the FRET-peptide, whereas uncleaved, phosphorylated FRET-peptides maintain FRET. To determine inhibition constants (IC50), compounds were serially diluted in DMSO and added to 10 uL kinase reactions containing 1 nM purified MAP4K4 enzyme, 2 uM ser/thr7 Z'-LYTE™ substrate, 10 uMATP, 50 mM Hepes (pH 7.5), 10 mM MgCl2, 1 mM EGTA, 0.01% Brij-35, and 2% DMSO. Reactions were incubated at room temperature in Corning Black 384 well plates (Corning#3573) for 60 minutes and stopped by the addition of 5 uL of Z'-LYTE™ development reagent A and incubated at room temp for 60 minutes. The plate is then analyzed on Perkin Elmer Envision by FRET mode. The high ratio of coumarin/fluorescein represents 0% phosphorylation rate while low ratio of coumarin/fluorescein represents 100% phosphorylation rate. The following equations are used to determine extent of peptide phosphorylation or inhibition: […]

[2] = target: T1, purified human MAP4K4 kinase domain; assay: MAP4K4 Inhibition Assay Protocol No. 1 (Caliper LabChip, moesin-derived peptide phosphorylation); type: biochemical; conditions: Assay 1; 1 nM enzyme, 10 uM ATP, 45 min
How it was run: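 1 nM enzyme with 1 uM 5-carboxyfluorescein-labelled moesin peptide and 10 uM ATP in 50 mM Hepes pH 7.2, 10 mM MgCl2, 2% DMSO, 45 min at room temperature, then EDTA stop. Phosphorylated fraction of peptide measured by microfluidic mobility shift; IC50 from four-parameter fit.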

T1 sequence (O95819 25-289 limits assumed): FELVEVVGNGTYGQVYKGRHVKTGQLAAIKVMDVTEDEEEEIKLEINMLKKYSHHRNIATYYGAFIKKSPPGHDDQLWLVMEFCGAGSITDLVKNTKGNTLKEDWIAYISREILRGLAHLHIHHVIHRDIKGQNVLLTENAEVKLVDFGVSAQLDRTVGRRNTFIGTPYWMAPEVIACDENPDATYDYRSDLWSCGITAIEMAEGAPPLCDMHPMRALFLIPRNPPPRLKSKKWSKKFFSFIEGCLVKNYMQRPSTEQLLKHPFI

In the case of `CNCc1cnc(N)c2cc(-c3cccc(F)c3)ccc12` [Example 129, 7-(3-fluorophenyl)-4-(methylaminomethyl) isoquinolin-1-amine], the IC50 [1] is reported as 3 µM and the IC50 [2] is reported as 4.1 µM.

For `CCNC(=O)NCC(CO)NC(=O)c1cnc(N)c2cc(-c3cccc(F)c3)ccc12` (stereo not drawn) [Example 133, 1-amino-N-[1-[(ethylcarbamoyl-amino)methyl]-2-hydroxy-ethyl]-7-(3-fluorophenyl) isoquinoline-4-carboxamide], the IC50 [1] was 0.0919 µM and the IC50 [2] was 0.0602 µM.

`CN1CC(NC(=O)c2cnc(N)c3cc(-c4cccc(F)c4)ccc23)C1` [Example 7, 1-amino-7-(3-fluorophenyl)-N-(1-methylazetidin-3-yl)isoquinoline-4-carboxamide] showed an IC50 [1] of 0.776 µM and an IC50 [2] of 0.869 µM.

`CCNC(=O)N1CC(NC(=O)c2cnc(N)c3cc(-c4cccc(F)c4)ccc23)C1` [Example 131, 1-amino-N-[1-(ethylcarbamoyl)azetidin-3-yl]-7-(3-fluorophenyl) isoquinoline-4-carboxamide] gave an IC50 [1] of 0.174 µM and an IC50 [2] of 0.168 µM.

`CNC(=O)N1CC(NC(=O)c2cnc(N)c3cc(-c4cccc(F)c4)ccc23)C1` [Example 8, 1-amino-7-(3-fluorophenyl)-N-[1-(methylcarbamoyl)azetidin-3-yl]isoquinoline-4-carboxamide] gave an IC50 [1] of 0.015 µM and an IC50 [2] of 0.0112 µM.

With `COCC(=O)N1CC(NC(=O)c2cnc(N)c3cc(-c4cccc(F)c4)ccc23)C1` [Example 128, 1-amino-7-(3-fluorophenyl)-N-[1-(2-methoxyacetyl)azetidin-3-yl]isoquinoline-4-carboxamide] the IC50 [1] was 0.0724 µM and the IC50 [2] was 0.0705 µM.

`Nc1ncc(C(=O)N[C@H]2C[C@H](O)C2)c2ccc(-c3cccc(F)c3)nc12` [Example 14b, 8-amino-2-(3-fluorophenyl)-N-(trans-3-hydroxycyclobutyl)-1,7-naphthyridine-5-carboxamide] showed an IC50 [1] of 0.0044 µM and an IC50 [2] of 0.00419 µM.

Molecule `Nc1ncc(C(=O)NC(CO)CNC(=O)NC2CC2)c2ccc(-c3cccc(F)c3)cc12` (stereo not drawn) [Example 130, 1-amino-N-[1-[(cyclopropyl-carbamoylamino)methyl]-2-hydroxy-ethyl]-7-(3-fluorophenyl) isoquinoline-4-carboxamide] has an IC50 [1] of 0.0665 µM and an IC50 [2] of 0.0609 µM.

With `CCN1CC(NC(=O)c2cnc(N)c3cc(-c4cccc(F)c4)ccc23)C1` [Example 127, 1-amino-N-(1-ethylazetidin-3-yl)-7-(3-fluorophenyl) isoquinoline-4-carboxamide] the IC50 [1] was 0.756 µM and the IC50 [2] was 1.2 µM.

For `Nc1ncc(C(=O)NC2CN(C(=O)NC3CC3)C2)c2ccc(-c3cccc(F)c3)cc12` [Example 132, 1-amino-N-[1-(cyclopropyl-carbamoyl)azetidin-3-yl]-7-(3-fluorophenyl)isoquinoline-4-carboxamide], the IC50 [1] was 0.191 µM and the IC50 [2] was 0.18 µM.

`Nc1ncc(CNC(=O)C2CC2)c2ccc(-c3cccc(F)c3)cc12` [Example 6, N-[[1-amino-7-(3-fluorophenyl)-4-isoquinolyl]methyl]cyclopropanecarboxamide] gave an IC50 [1] of 0.0294 µM and an IC50 [2] of 0.0414 µM.

`Nc1ncc(C(=O)NC2CN(S(=O)(=O)C(F)(F)F)C2)c2ccc(-c3cccc(F)c3)nc12` [Example 23, 8-amino-2-(3-fluorophenyl)-N-(1-((trifluoromethyl)sulfonyl)azetidin-3-yl)-1,7-naphthyridine-5-Carboxamide] was tested, and the IC50 [1] was 0.0285 µM.

`Nc1ncc(C(=O)NC2CN(C(=O)C3CC3)C2)c2ccc(-c3ccnc(F)c3)nc12` [Example 44, 8-amino-N-(1-(cyclopropanecarbonyl)azetidin-3-yl)-2-(2-fluoropyridin-4-yl)-1,7-naphthyridine-5-Carboxamide] gave an IC50 [1] of 0.00263 µM.

Work on `CCOC(=O)c1cnc(N)c2nc(-c3cccc(OC(F)F)c3)ccc12` [Example 140, ethyl 8-amino-2-[3-(difluoro-methoxy)phenyl]-1,7-naphthyridine-5-carboxylate] yielded an IC50 [1] of 0.00769 µM.

`CCOC(=O)c1cnc(N)c2nc(-c3cccc(OC(F)(F)F)c3)ccc12` [Example 139, ethyl 8-amino-2-[3-(trifluoro-methoxy)phenyl]-1,7-naphthyridine-5-carboxylate] gave an IC50 [1] of 0.00216 µM.

`CCC(=O)NC1CN(C(=O)c2cnc(N)c3nc(-c4cccc(F)c4)ccc23)C1` [Example 29, N-(1-(8-amino-2-(3-fluorophenyl)-1,7-naphthyridine-5-carbonyl)azetidin-3-yl)propionamide] showed an IC50 [1] of 0.0608 µM.

`CCOC(=O)c1cnc(N)c2nc(-c3cccc(F)c3)ccc12` [Example 118, ethyl 8-amino-2-(3-fluorophenyl)-1,7-naphthyridine-5-carboxylate] gave an IC50 [1] of 0.000648 µM and an IC50 [2] of 0.000464 µM.

For `CCOC(=O)c1cnc(N)c2nc(-c3ccc(OC)cc3)ccc12` [Example 150, ethyl 8-amino-2-(4-methoxy-phenyl)-1,7-naphthyridine-5-carboxylate], the IC50 [1] was 0.0212 µM.
